The supplement of paper PMC10307832

What was measured:
Test in all cases: relative viability (nuclei count vs DMSO), 5 days (fraction); higher = more cells survive
Pazopanib + Trametinib = compound: Cc1ccc(Nc2nccc(N(C)c3ccc4c(C)n(C)nc4c3)n2)cc1S(N)(=O)=O [Pazopanib] + CC(=O)Nc1cccc(-n2c(=O)n(C3CC3)c(=O)c3c(Nc4ccc(I)cc4F)n(C)c(=O)c(C)c32)c1 [Trametinib] (partner 0.02 µM)
How it was run: (§1)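 Cells from lung cancer lines were seeded into 1536-well plates and, one day later, dosed by pin tool. Treatments were either a single drug or a fixed dose of an anchor drug with five library-drug doses (not always all listed) in √10 steps. After 5 days, nuclei were stained in a one-step fixation (final 0.05% Triton X-100, 1% formaldehyde, 1 ug/ml Hoechst) and counted on 4× images, and relative viability is the treated-to-vehicle nuclei ratio, as the median of duplicate plates.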

Pazopanib + Vorinostat = compound: Cc1ccc(Nc2nccc(N(C)c3ccc4c(C)n(C)nc4c3)n2)cc1S(N)(=O)=O [Pazopanib] + O=C(CCCCCCC(=O)Nc1ccccc1)NO [Vorinostat] (partner 1 µM)
How it was run: as §1

Pazopanib + Pictilisib = compound: Cc1ccc(Nc2nccc(N(C)c3ccc4c(C)n(C)nc4c3)n2)cc1S(N)(=O)=O [Pazopanib] + CS(=O)(=O)N1CCN(Cc2cc3nc(-c4cccc5[nH]ncc45)nc(N4CCOCC4)c3s2)CC1 [Pictilisib] (partner 1 µM)
How it was run: as §1

Ponatinib + Phenformin = compound: Cc1ccc(C(=O)Nc2ccc(CN3CCN(C)CC3)c(C(F)(F)F)c2)cc1C#Cc1cnc2cccnn12 [Ponatinib] + N=C(N)NC(=N)NCCc1ccccc1 [Phenformin] (partner 250 µM)
How it was run: as §1

Cell Line | relative viability (Pazopanib + Trametinib; first compound 0.01 µM) | relative viability (Pazopanib + Trametinib; first compound 0.03162 µM) | relative viability (Pazopanib + Trametinib; first compound 0.1 µM) | relative viability (Pazopanib + Trametinib; first compound 0.3162 µM) | relative viability (Pazopanib + Trametinib; first compound 1 µM) | relative viability (Pazopanib + Vorinostat; first compound 0.01 µM) | relative viability (Pazopanib + Vorinostat; first compound 0.03162 µM) | relative viability (Pazopanib + Vorinostat; first compound 0.1 µM) | relative viability (Pazopanib + Vorinostat; first compound 0.3162 µM) | relative viability (Pazopanib + Vorinostat; first compound 1 µM) | relative viability (Pazopanib + Pictilisib; first compound 0.01 µM) | relative viability (Pazopanib + Pictilisib; first compound 0.03162 µM) | relative viability (Pazopanib + Pictilisib; first compound 0.1 µM) | relative viability (Pazopanib + Pictilisib; first compound 0.3162 µM) | relative viability (Pazopanib + Pictilisib; first compound 1 µM) | relative viability (Ponatinib + Phenformin; first compound 0.002 µM) | relative viability (Ponatinib + Phenformin; first compound 0.006325 µM) | relative viability (Ponatinib + Phenformin; first compound 0.06325 µM) | relative viability (Ponatinib + Phenformin; first compound 0.2 µM)
HCC-15 | 0.326 | 0.338 | 0.382 | 0.417 | 0.406 | 0.878 | 0.906 | 0.867 | 0.893 | 0.791 | 0.703 | 0.773 | 0.718 | 0.857 | 1.06 | 0.445 | 0.494 | 0.547 | 0.467
HCC-44 | 1.03 | 1 | 1.03 | 1 | 1.09 | 1.11 | 1.01 | 1.08 | 1.04 | 1.15 | 0.421 | 0.599 | 0.659 | 0.521 | 0.673 | 0.22 | 0.225 | 0.207 | 0.151
HCC-78 |  | 0.864 | 0.721 | 0.804 | 1.06 |  | 0.455 | 0.433 | 0.412 | 0.446 | 0.2 | 0.216 | 0.194 | 0.214 | 0.202 | 0.601 | 0.614 | 0.673 | 0.669
HCC-366 | 0.319 | 0.328 | 0.346 | 0.365 | 0.413 | 0.239 | 0.336 | 0.414 | 0.379 | 0.81 | 0.0942 | 0.155 | 0.116 | 0.164 | 0.159 | 0.602 | 0.587 | 0.622 | 0.515
HCC-827 | 0.558 | 0.551 | 0.546 | 0.547 | 0.559 | 0.895 | 0.839 | 0.843 | 0.922 | 0.785 | 0.894 | 1.17 | 1.03 | 0.946 | 1.12 | 0.411 | 0.429 | 0.416 | 0.348
HOP-62 | 0.378 | 0.371 | 0.421 | 0.427 | 0.5 | 0.494 | 0.584 | 0.474 | 0.656 | 0.496 | 0.479 | 0.768 |  | 0.874 | 0.874 | 0.602 | 0.635 | 0.633 | 0.624
IA-LM |  |  |  |  |  |  | 0.977 | 1.1 | 0.964 | 0.945 | 0.368 | 0.439 | 0.4 | 0.568 | 0.524 |  |  |  | 
LC-2-ad | 0.905 | 0.934 | 0.89 | 0.915 | 0.858 | 0.697 | 0.719 | 0.732 | 0.771 | 0.732 | 0.412 | 0.436 | 0.515 | 0.196 | 0.527 | 0.415 | 0.542 | 0.498 | 0.462
LCLC-97TM1 |  | 0.218 | 0.203 | 0.209 | 0.279 |  | 0.877 | 0.58 | 0.797 | 0.736 |  | 0.196 | 0.195 | 0.201 | 0.179 | 0.489 | 0.432 | 0.467 | 0.411
LCLC-103H | 0.589 | 0.725 | 0.68 | 0.646 | 0.723 | 0.692 | 0.804 | 0.753 | 0.823 | 0.842 | 0.531 | 0.575 | 0.635 | 0.764 | 0.588 | 0.275 | 0.347 | 0.312 | 0.295
LK-2 | 0.643 | 0.788 | 0.562 | 0.565 | 0.755 | 0.201 | 0.26 | 0.252 | 0.236 | 0.235 | 0.508 | 0.724 | 0.729 | 0.558 | 0.496 |  | 0.52 | 0.239 | 0.21
NCI-H522 | 0.727 | 0.771 | 0.735 | 0.786 | 0.811 | 0.603 | 0.874 | 0.851 | 0.922 | 1.02 |  |  |  |  |  | 0.697 | 0.657 | 0.653 | 0.56
NCI-H1299 |  |  |  |  |  |  |  |  |  |  | 0.791 | 0.79 | 0.82 | 0.952 | 0.693 |  |  |  | 
NCI-H1563 |  |  |  |  |  |  |  |  |  |  | 0.664 | 0.637 | 0.697 | 0.667 | 0.627 | 0.587 | 0.649 | 0.655 | 0.525
NCI-H1648 |  |  | 0.452 | 0.454 | 0.427 |  |  | 0.337 | 0.535 | 0.376 |  |  |  |  |  |  |  |  | 
NCI-H1703 |  |  |  |  |  |  |  |  |  |  | 0.246 | 0.24 | 0.207 | 0.198 | 0.173 |  |  |  | 
NCI-H1792 |  | 0.432 | 0.418 | 0.349 | 0.443 |  |  |  |  |  |  | 0.271 | 0.276 | 0.282 | 0.309 | 0.268 | 0.22 | 0.354 | 0.205
NCI-H2342 | 0.778 | 0.918 | 0.821 | 0.754 | 0.674 | 0.671 | 0.789 | 0.704 | 0.762 | 0.687 |  |  |  |  |  | 0.5 | 0.488 | 0.538 | 0.595
SW 900 | 1.03 | 0.837 |  | 0.974 | 1.03 | 0.465 | 0.33 |  | 0.545 | 0.53 |  |  |  |  |  | 0.491 | 0.496 | 0.682 | 0.416
